Source: the supplement of paper PMC10307832

Legend:
Assay in all cases: relative viability (nuclei count vs DMSO), 5 days (fraction); higher = more cells survive
[1] = compound: CC(C)(C)c1cc(NC(=O)Nc2ccc(-c3cn4c(n3)sc3cc(OCCN5CCOCC5)ccc34)cc2)no1 [Quizartinib] + O=C(c1cc(Cc2n[nH]c(=O)c3ccccc23)ccc1F)N1CCN(C(=O)C2CC2)CC1 [Olaparib] (partner 8 µM)
Method in brief: (§1)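 Relative viability divides the nuclei count in treated wells by that in vehicle wells. Lung cancer cell lines were seeded in 1536-well plates, dosed by pin tool the next day, and fixed and stained after 5 days in one step with final 0.05% Triton X-100, 1% formaldehyde and 1 ug/ml Hoechst. Dosing was a single drug or a fixed anchor-drug dose plus five library-drug doses (not always all listed) in √10 steps, and values are medians of duplicate plates imaged at 4×.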

[2] = compound: COCC[n+]1c2c(n(Cc3cnccn3)c1C)C(=O)c1ccccc1C2=O [YM155] + CS(=O)(=O)N1CCN(Cc2cc3nc(-c4cccc5[nH]ncc45)nc(N4CCOCC4)c3s2)CC1 [Pictilisib] (partner 1 µM)
Method in brief: as §1

[3] = compound: COCC[n+]1c2c(n(Cc3cnccn3)c1C)C(=O)c1ccccc1C2=O [YM155] + O=C(CCCCCCC(=O)Nc1ccccc1)NO [Vorinostat] (partner 1 µM)
Method in brief: as §1

[4] = compound: CC(C)(C)c1cc(NC(=O)Nc2ccc(-c3cn4c(n3)sc3cc(OCCN5CCOCC5)ccc34)cc2)no1 [Quizartinib] + Nc1nc2[nH]cc(CCc3ccc(C(=O)N[C@@H](CCC(=O)O)C(=O)O)cc3)c2c(=O)[nH]1 [Pemetrexed] (partner 0.2 µM)
Method in brief: as §1

Cell Line	relative viability ([1]; first compound 0.001 µM)	relative viability ([1]; first compound 0.003162 µM)	relative viability ([1]; first compound 0.01 µM)	relative viability ([1]; first compound 0.03162 µM)	relative viability ([1]; first compound 0.1 µM)	relative viability ([2]; first compound 0.002 µM)	relative viability ([2]; first compound 0.006325 µM)	relative viability ([2]; first compound 0.02 µM)	relative viability ([2]; first compound 0.06325 µM)	relative viability ([3]; first compound 0.002 µM)	relative viability ([3]; first compound 0.006325 µM)	relative viability ([3]; first compound 0.02 µM)	relative viability ([3]; first compound 0.06325 µM)	relative viability ([4]; first compound 0.001 µM)	relative viability ([4]; first compound 0.003162 µM)	relative viability ([4]; first compound 0.01 µM)	relative viability ([4]; first compound 0.03162 µM)	relative viability ([4]; first compound 0.1 µM)
BEN	1.11	1.02	0.991	0.841	1.02	0.53	0.644	0.627	0.578	0.516	0.511	0.619	0.679	0.739	0.959	0.681	0.659	0.78
NCI-H2126	0.914	0.915	0.896	0.984	0.882	0.427	0.525	0.466	0.54	0.782	0.834	0.865	0.851	0.682	0.658	0.765	0.663	0.689
EMC-BAC-2	0.468	0.441	0.524		0.536	0.545	0.533	0.556	0.484	0.428	0.452	0.606	0.256	0.365	0.44	0.451		0.493
NCI-H1793	0.765	0.684	0.855	0.808	0.835		0.303	0.318	0.211	0.719	0.641	0.89	0.74	0.806	1.03	0.841	0.854	0.929
NCI-H650	0.373	0.334	0.44	0.4	0.474	0.88	0.843	0.953	0.683	0.364	0.491	0.5	0.312	0.902	0.945	0.9	0.912	1.09
NCI-H1437	0.613	0.587	0.627	0.584	0.468	0.417	0.404	0.468	0.507	0.83	0.809	0.833	0.432	0.314	0.302	0.305	0.335	0.32
COR-L 105	0.705	0.795	0.65		0.863	0.332	0.493	0.447	0.404	0.77	0.875	0.905	0.541	0.985	1.18	1.29		1.3
CAL-12T	0.617	0.76	0.674	0.594	0.841		0.566	0.557	0.392	0.624	0.723	0.623	0.412	1.01	1.01	1.36	0.998	1.49
IA-LM	0.908	0.796	0.851	0.75	0.74	0.312	0.266	0.367	0.141	0.863	0.932	0.942	0.97					
ChaGo-K-1		0.415	0.463	0.45	0.447	0.671	0.65	0.63	0.718	0.772	0.744	0.787	0.747		0.247	0.264	0.26	0.264
